Experiments:
[1] = system: prostaglandin synthesis; settings: cited from earlier work
[2] = system: mitochondrial respiration; experiment: mitochondrial respiration (liver mitochondria); assay type: biochemical, rat
Protocol: Studies of Mitochondrial Respiration.
Rat liver mitochondria are prepared using the method of Lai and Clark Methods Enzymol 55:51-60 (1979). The livers are excised rapidly into ice cold isolation medium containing 0.25M sucrose, 10 mM tris(hydroxymethyl)aminomethane (Tris), 0.25% bovine serum albumin (fatty acid free), and 0.5 mM potassium EDTA, pH 7.4. The tissue is minced and rinsed three times in cold isolation medium. The minced tissue is placed in a Dounce homogenizer with 20 ml cold isolation medium, gently homogenized, and diluted with an additional 10 ml of isolation medium. The homogenate is centrifuged at 2,000 g for 3 min., and the resulting supernatant recentrifuged at 12,500 g for 8 min. The crude mitochondrial pellet is suspended in 0.12M mannitol-0.03M sucrose medium containing 3% Ficoll, gently layered onto 20 ml of 6% Ficoll (0.25M mannitol-0.06M sucrose), and centrifuged at 11,500 g for 30 min. The resulting mitochondrial pellet is resuspended in the isolation medium and recentrifuged for 10 min. at 12,500 g. The final pellet is brought to a concentration of 10 to 15 mg of mitochondrial protein per ml with isolation medium. Mitochondrial protein is determined by the Biuret reaction described by Gornall, A. G., et al. Biol Chem 177:751-766 (1949), using bovine serum albumin as a standard. Mitochondrial respiration is measured polarographically in a magnetically stirred chamber at 25° C., using a Clark microelectrode (Diamond Electro-tech, Ann Arbor, Mich.). The incubation medium contains the following (in mM): 5K+, 226 mannitol, 75 sucrose, 5 Tris-phosphate, 10 Tris-Cl, and 0.05 EDTA at pH 7.4. State 4 respiratory rates are determined using both NADH-linked (2.5 mM malate+ 2 mM glutamate) and FADH2 -lined (10 mM succinate) substrates, with 5 mM KCl at pH 7.0. State 3 respiration rates are measured after stimulation with 1.5 mM ADP. Respiratory control ratios are determined as the ratio of State 3 to State 4 respiration after incubation with 0, 50, 100 and 200 μM piroxicam.

[3] = system: gastric mucosal glutathione; experiment: glutathione in gastric mucosa; assay type: in vivo, rat; settings: 4 h after piroxicam
Protocol: MEASUREMENT OF GLUTATHIONE IN GASTRIC MUCOSA.
Gastric mucosal glutathione is measured in piroxicam-and vehicle-treated rat stomachs. Four hours after piroxicam or vehicle, stomachs are opened, washed with ice cold saline, and spread along a flat surface with lumens exposed. The gastric mucosa is then removed by scraping with a surgical blade. The mucosa is homogenized on ice in 1 ml of 1.15% KCl. Two aliquots of 250 μl are snap frozen in liquid nitrogen and stored at -70° C. for later determination of total glutathione by the method of Anderson, M. E. Methods Enzymol 113:548-555 (1985) and protein by a modification of the Lowry method, described by Bennett, J. P. Techniques Lipid Membrane Biochem. B408:1-22 (1982), using bovine serum albumin as a standard. Results are expressed as nmole/mg protein. To measure oxidized glutathione (GSSG), the remaining 500 μl is mixed with an equal volume of N-ethylmaleimide (NEM) in water (10 mM final concentration of NEM), snap frozen and stored at -70° C. After thawing for analysis, this mixture is passed over a C-18 Sep-Pak column (Waters Associates, Milford, Mass.) and washed with 1 ml phosphate buffer (pH 7.5). This technique for removing excess NEM has been previously shown to result in >90% recovery of GSSG. GSSG is then assayed by the method used above to determine total glutathione.

[4] = system: gastric ulceration; settings: rats and mice; cited from earlier work
[5] = system: gastric biopsies (lipid peroxidation); experiment: lipid peroxidation in stomachs (thiobarbituric acid reactivity of gastric punch biopsies); assay type: in vivo, rat; settings: 4 h after piroxicam, P<0.05 vs vehicle (0.075±0.004)
Source text: MEASUREMENT OF LIPID PEROXIDATION IN STOMACHS. Lipid peroxidation is studied in piroxicam-and vehicle-treated rat stomachs by measuring thiobarbituric acid (TBA) reactivity of gastric punch biopsies by the method of Buege and Aust Buege, J. A., Aust, S. D. Methods Enzymol 51:302-310 (1978). Four hours after piroxicam or vehicle, stomachs are opened along the radius of greater curvature, washed with ice cold normal saline, and spread along a flat surface with lumens exposed. Five punch biopsies from mucosal through serosal surfaces are taken from each stomach using a 3 mm diameter skin biopsy punch. Biopsies are taken over ulcers in piroxicam treated stomachs and randomly over gastric rugae (where ulcers occur) in vehicle control stomachs. Biopsies from each stomach are combined, homogenized on ice in 1 ml of cold 1.15% KCl, and mixed with 2 ml of TBA reagent (0.375% thiobarbituric acid and 15% trichloroacetic acid in 0.25 HCl, to which 0.01% butylated hydroxytoluene is added just prior to use). After incubation at 100° C. for 15 minutes, the mixture is cooled and centrifuged at 1,500 g for 10 min. The absorbance of the supernatant is measured at 532 nm, and results expressed as […] per stomach.

[6] = system: mitochondrial respiration; experiment: generation of O2- by mitochondrial respiration; assay type: biochemical, rat
[7] = system: microsomal lipid peroxidation; experiment: microsomal lipid peroxidation (liver microsomes); assay type: biochemical; settings: 200 μM piroxicam, rat liver microsomes
Protocol: Studies of Microsomal Lipid Peroxidation. […] Rats are euthanized by CO2 narcosis. The livers are excised rapidly into cold isolation medium containing 0.1M sodium phosphate and 2 mM EDTA, pH 7.4. The tissue is minced and homogenized in 3 ml isolation medium per gram of tissue using a Potter-Elvehjam homogenizer. The homogenate is centrifuged at 17,800 g for 20 min., and the pellet discarded. The supernatant is recentrifuged at 100,000 g for 60 min. The resulting pellet is resuspended in isolation buffer and recentrifuged at 100,000 g for 40 min. The final pellet is resuspended in storage buffer containing 100 mM potassium phosphate, 20% glycerol, 1 mM EDTA, 1 mM DTT and 20 μM butylated hydroxytoluene, pH 7.25. This suspension is frozen under liquid nitrogen and stored at -70° CL until use. Microsomal protein is determined by a modification of the Lowry method of Anderson, M. E. Methods Enzymol 113:548-555 (1985). […] Lipid peroxidation in the 1 ml reaction mixture is measured by mixing with 2 ml TBA reagent and assaying for thiobarbituric acid reactivity by the method of Buege and Aust. Values are expressed as the increase in absorbance at 532 nm ([MUT]) per mg microsomal protein and represent the mean of three replicates.

[8] = rat liver mitochondria, 0-200 μM piroxicam

CN1C(C(=O)Nc2ccccn2)=C(O)c2ccccc2S1(=O)=O [piroxicam]
inhibition of prostaglandin synthesis [1]: relative weak reversible inhibitor | respiratory control ([2]; FADH2-linked and NADH-linked substrates): inhibition of respiratory control | rate of mitochondrial oxygen uptake in the absence of ADP (State 4) [2, 8]: increases the rate of mitochondrial oxygen uptake | stimulation of respiration by ADP (State 3) [2, 8]: lost in the presence of piroxicam | total glutathione in gastric mucosa ([3]; difference vs vehicle not statistically significant): 0.33±0.03 nmoles/mg protein | fraction of GSSG ([3]; vehicle 6.4 0.7%, not statistically significant): 8.9±0.9% | ulcerogenicity [4]: highly ulcerogenic | thiobarbituric acid reactivity, A532 [5]: 0.104±0.010 A532 | generation of O2- by mitochondrial respiration [6]: did not increase generation of O2 - | NADPH-dependent microsomal lipid peroxidation [7]: no effect
